Test results taken from patent US20020049223A1, “Quinoline and naphthyridine carboxylic acid antibacterials” (priority 1999, published 2002).
Where a name gives a salt, the structure may show the parent alone.

What was measured:
Assay in all cases: Assay B: in vitro antibacterial activity, broth microdilution MIC (NCCLS)
Format in all cases: cell-based
[1] = test system: Enterococcus faecalis PIU 1967; settings: Table 2, Assay B, cation-adjusted Mueller Hinton broth, 35° C., 16 to 20 hr; code B = Enterococcus faecalis PIU 1967; unit assumed
Outline: (§1)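 NCCLS broth microdilution with two-fold dilutions in cation-adjusted Mueller Hinton broth, inoculum about 5×10^5 CFU/mL, 35 °C in ambient air for 16-20 h; MIC read visually as lowest concentration completely inhibiting growth. S. pneumoniae: 3% lysed horse blood, 20-24 h; H. influenzae: 5 g/L yeast extract, 0.3 mmol/L hematin, 15 mg/L NAD, 20-24 h.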

Escherichia coli JUHL = settings: Table 2, Assay B, cation-adjusted Mueller Hinton broth, 35° C., 16 to 20 hr; code D = Escherichia coli JUHL; unit assumed
Outline: as §1

[2] = test system: Haemophilus influenzae DILL AMP R; settings: Table 2, Assay B, Mueller Hinton broth with yeast extract, hematin and NAD, 20 to 24 hr; code E = Haemophilus influenzae DILL AMP R; unit assumed
Outline: as §1

[3] = test system: Staphylococcus aureus ATCC 6538P; settings: Table 2, Assay B, cation-adjusted Mueller Hinton broth, 35° C., 16 to 20 hr; code A = Staphylococcus aureus ATCC 6538P; unit assumed
Outline: as §1

[4] = test system: Streptococcus pneumoniae ATCC 6303; settings: Table 2, Assay B, Mueller Hinton broth with 3% lysed horse blood, 20 to 24 hr; code F = Streptococcus pneumoniae ATCC 6303; unit assumed
Outline: as §1

Antibacterial Activity (MIC's), B [1]	Antibacterial Activity (MIC's), D (Escherichia coli JUHL)	Antibacterial Activity (MIC's), E [2]	Antibacterial Activity (MIC's), A [3]	Antibacterial Activity (MIC's), F [4]	Compound
1 mg/L	2 mg/L	0.5 mg/L	0.125 mg/L	1 mg/L	COc1c(-c2cc3c(s2)CCCC3n2cccc2)ccc2c(=O)c(C(=O)O)cn(C3CC3)c12 (stereo not drawn) [Example 89, 1-cyclopropyl-8-methoxy-4-oxo-7-(4-(1H-pyrrol-1-yl)-4,5,6,7-tetrahydro-1-benzothien-2-yl)-1,4-dihydro-3-quinolinecarboxylic acid]
0.25 mg/L	2 mg/L	0.25 mg/L	0.06 mg/L	0.5 mg/L	COc1c(-c2cc3c(s2)C(O)CCC3(C)C)ccc2c(=O)c(C(=O)O)cn(C3CC3)c12 (stereo not drawn) [Example 218, 1-cyclopropyl-7-(7-hydroxy-4,4-dimethyl-4,5,6,7-tetrahydro-1-benzothien-2-yl)-8-methoxy-4-oxo-1,4-dihydro-3-quinolinecarboxylic acid]
0.125 mg/L	0.06 mg/L	0.03 mg/L	0.03 mg/L	0.03 mg/L	Cl.NC1CCCc2sc(-c3ccc4c(=O)c(C(=O)O)cn(C5CC5)c4c3)cc21 (stereo not drawn) [Example 287, 7-(4-amino-4,5,6,7-tetrahydro-1-benzothien-2-yl)-1-cyclopropyl-4-oxo-1,4-dihydroquinoline-3-carboxylic acid hydrochloride]
0.125 mg/L	0.125 mg/L	0.06 mg/L	0.015 mg/L	0.25 mg/L	O=C(O)c1cn(C2CC2)c2cc(-c3cc4c(s3)C(O)CCC4)ccc2c1=O (stereo not drawn) [Example 280, 1-cyclopropyl-7-(7-hydroxy-4,5,6,7-tetrahydro-1-benzothien-2-yl)-4-oxo-1,4-dihydroquinoline-3-carboxylic acid]
0.125 mg/L	0.05 mg/L	0.06 mg/L	0.015 mg/L	0.25 mg/L	CON=C1CCCc2cc(-c3ccc4c(=O)c(C(=O)O)cn(C5CC5)c4c3OC)sc21 [Example 63, 1-cyclopropyl-8-methoxy-7-((7E/Z)-7-(methoxyimino)-4,5,6,7-tetrahydro-1-benzothien-2-yl)-4-oxo-1,4-dihydro-3-quinolinecarboxylic acid]
1 mg/L	8 mg/L	0.03 mg/L	0.25 mg/L	0.5 mg/L	COc1c(-c2cc3c(s2)S(=O)(=O)N(C)CC3O)ccc2c(=O)c(C(=O)O)cn(C3CC3)c12 (stereo not drawn) [Example 102, 1-cyclopropyl-7-(4-hydroxy-2-methyl-1,1-dioxido-3,4-dihydro-2H-thieno[3,2-e][1,2]thiazin-6-yl)-8-methoxy-4-oxo-1,4-dihydro-3-quinolinecarboxylic acid]
0.25 mg/L	0.25 mg/L	0.06 mg/L	0.004 mg/L	0.125 mg/L	COc1c(-c2cc3c(s2)C(N)C(C)(C)CC3)ccc2c(=O)c(C(=O)O)cn(C3CC3)c12.Cl (stereo not drawn) [Example 245, 7-(7-amino-6,6-dimethyl-4,5,6,7-tetrahydro-1-benzothien-2-yl)-1-cyclopropyl-8-methoxy-4-oxo-1,4-dihydro-3-quinolinecarboxylic acid hydrochloride]
1 mg/L	4 mg/L	0.5 mg/L	0.125 mg/L	4 mg/L	COc1c(-c2cc3c(s2)CC(C)(C)CC3)ccc2c(=O)c(C(=O)O)cn(C3CC3)c12 [Example 236, 1-cyclopropyl-7-(6,6-dimethyl-4,5,6,7-tetrahydro-1-benzothien-2-yl)-8-methoxy-4-oxo-1,4-dihydro-3-quinolinecarboxylic acid]
32 mg/L	32 mg/L	4 mg/L	1 mg/L	> 64 mg/L	COc1c(-c2nc3c(s2)C(=O)CCC3)ccc2c(=O)c(C(=O)O)cn(C3CC3)c12 [Example 239, 1-cyclopropyl-8-methoxy-4-oxo-7-(7-oxo-4,5,6,7-tetrahydro-1,3-benzothiazol-2-yl)-1,4-dihydro-3-quinolinecarboxylic acid]
0.25 mg/L	0.25 mg/L	0.06 mg/L	0.03 mg/L	0.125 mg/L	CC1(C)CCc2cc(-c3ccc4c(=O)c(C(=O)O)cn(C5CC5)c4c3Cl)sc2C1N.Cl (stereo not drawn) [Example 347, 7-(7-amino-6,6-dimethyl-4,5,6,7-tetrahydro-1-benzothien-2-yl)-8-chloro-1-cyclopropyl-4-oxo-1,4-dihydroquinoline-3-carboxylic acid hydrochloride]
0.25 mg/L	0.125 mg/L	0.015 mg/L	0.125 mg/L	0.125 mg/L	Cl.NC1CCCc2cc(-c3cc(F)c4c(=O)c(C(=O)O)cn(C5CC5)c4c3F)sc21 (stereo not drawn) [Example 326, 7-(7-amino-4,5,6,7-tetrahydro-1-benzothien-2-yl)-1-cyclopropyl-5,8-difluoro-4-oxo-1,4-dihydroquinoline-3-carboxylic acid hydrochloride]
0.125 mg/L	0.125 mg/L	0.015 mg/L	0.03 mg/L	0.03 mg/L	Cl.NC1CCCc2sc(-c3ccc4c(=O)c(C(=O)O)cn(C5CC5)c4c3OC(F)F)cc21 (stereo not drawn) [Example 101, 7-(4-amino-4,5,6,7-tetrahydro-1-benzothien-2-yl)-1-cyclopropyl-8-(difluoromethoxy)-4-oxo-1,4-dihydro-3-quinolinecarboxylic acid hydrochloride]
0.06 mg/L	0.06 mg/L	≤ 0.004 mg/L	≤ 0.004 mg/L	0.03 mg/L	Cc1c(-c2cc3c(s2)CCCC3O)c(F)cc2c(=O)c(C(=O)O)cn(C3CC3)c12 (stereo not drawn) [Example 316, 1-cyclopropyl-6-fluoro-7-(4-hydroxy-4,5,6,7-tetrahydro-1-benzothien-2-yl)-8-methyl-4-oxo-1,4-dihydroquinoline-3-carboxylic acid]
0.125 mg/L	0.5 mg/L	0.06 mg/L	≤ 0.004 mg/L	0.125 mg/L	COc1c(-c2cc3c(s2)CCC(=NO)C3)ccc2c(=O)c(C(=O)O)cn(C3CC3)c12 [Example 55, 1-cyclopropyl-7-((5E/Z)-5-(hydroxyimino)-4,5,6,7-tetrahydro-1-benzothien-2-yl)-8-methoxy-4-oxo-1,4-dihydro-3-quinolinecarboxylic acid]
0.5 mg/L	1 mg/L	0.5 mg/L	0.125 mg/L	0.25 mg/L	COc1c(-c2cc3c(s2)C(N)CCC3(C)C)ccc2c(=O)c(C(=O)O)cn(C3CC3)c12.Cl (stereo not drawn) [Example 222, 7-(7-amino-4,4-dimethyl-4,5,6,7-tetrahydro-1-benzothien-2-yl)-1-cyclopropyl-8-methoxy-4-oxo-1,4-dihydro-3-quinolinecarboxylic acid hydrochloride]
0.06 mg/L	0.03 mg/L	0.015 mg/L	0.015 mg/L	0.06 mg/L	Cl.NC1CCCc2cc(-c3c(F)cc4c(=O)c(C(=O)O)cn(C5CC5)c4c3F)sc21 (stereo not drawn) [Example 309, 7-(7-amino-4,5,6,7-tetrahydro-1-benzothien-2-yl)-1-cyclopropyl-6,8-difluoro-4-oxo-1,4-dihydroquinoline-3-carboxylic acid hydrochloride]
2 mg/L	4 mg/L	0.25 mg/L	0.125 mg/L	0.25 mg/L	COc1c(-c2cc3c(s2)CC(=O)C3)ccc2c(=O)c(C(=O)O)cn(C3CC3)c12 [Example 247, 1-cyclopropyl-8-methoxy-4-oxo-7-(5-oxo-5,6-dihydro-4H-cyclopenta[b]thien-2-yl)-1,4-dihydro-3-quinolinecarboxylic acid]

Compound	Antibacterial Activity (MIC's), B [1]	Antibacterial Activity (MIC's), D (Escherichia coli JUHL)	Antibacterial Activity (MIC's), E [2]	Antibacterial Activity (MIC's), A [3]	Antibacterial Activity (MIC's), F [4]
CNC1CCCc2sc(-c3ccc4c(=O)c(C(=O)O)cn(C5CC5)c4c3OC(F)F)cc21 (stereo not drawn) [Example 107, 1-cyclopropyl-8-(difluoromethoxy)-7-(4-(methylamino)-4,5,6,7-tetrahydro-1-benzothien-2-yl)-4-oxo-1,4-dihydro-3-quinolinecarboxylic acid hydrochloride]	0.5 mg/L	0.25 mg/L	0.06 mg/L	0.06 mg/L	0.06 mg/L
